Results taken from patent publication US20180230166A1 (Merck Sharp & Dohme Corp., priority 2015, published 2018).
pIC50: −log10 of the molar value.

Columns and labels:
[1] = biological target: T1, endogenous CETP from serum (Homo sapiens, UniProt P11597); assay: RTA assay in 95% human serum (95% RTA), CETP-catalyzed CE and TG transfer; format: biochemical; conditions: RTA assay in 95% human serum; read-out: IC50
T1 construct: yielding a concentration of approximately 15 nM endogenous CETP in the assay; from tissue; host or cells: human serum (95% of the assay volume)
T1 sequence (P11597 18-493): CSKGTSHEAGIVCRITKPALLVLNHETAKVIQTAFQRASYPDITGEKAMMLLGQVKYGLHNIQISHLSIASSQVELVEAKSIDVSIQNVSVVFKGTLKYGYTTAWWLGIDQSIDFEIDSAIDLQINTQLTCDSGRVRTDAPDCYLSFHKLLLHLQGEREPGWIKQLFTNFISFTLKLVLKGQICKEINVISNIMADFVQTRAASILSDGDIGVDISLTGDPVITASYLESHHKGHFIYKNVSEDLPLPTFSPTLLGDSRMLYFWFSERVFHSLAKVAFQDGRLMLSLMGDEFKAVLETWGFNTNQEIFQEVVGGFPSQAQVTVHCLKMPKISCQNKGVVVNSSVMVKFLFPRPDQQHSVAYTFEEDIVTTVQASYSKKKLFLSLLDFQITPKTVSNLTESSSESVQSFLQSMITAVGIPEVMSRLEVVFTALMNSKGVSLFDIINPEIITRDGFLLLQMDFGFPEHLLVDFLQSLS
Procedure: Reagents and sources are: [3H] cholesteryl oleate (GE #TRK.886), [3H] Triolein (Perkin-Elmer NET-431), Butylated hydroxyl toluene (Aldrich, #D4740-4), DOPC (Sigma, #P6354), Sodium Bromide (Fisher scientific #S255-500), PEG 8000 (Fisher, #BP233-1), and human HDL (Intracel Corp #RP-036).
Both assays measure the transfer of [3H] cholesteryl oleate or [3H] triolein from exogenous LDL to HDL.
Radiolabeled donor particles are generated by first combining 100 μl of 200 μM butylated hydroxyl toluene in CHCl3, 216 μL of 21.57 mM DOPC in EtOH, and either 500 μCi [3H]-triolein (Perkin Elmer #NET-431) or 500 μCi [3H]-cholesteryl oleate (GE #TRK886) in a glass tube. Reagents are mixed, dried under nitrogen, and then resuspended in 2 mL of 50 mM Tris, 27 μM EDTA at pH 7.4. After a brief vortex, the solution is sonicated until clear and mixed with 20 mL of fresh human serum. The mixture is incubated overnight at 37° C. The [3H] labeled LDL substrate is separated at 1.063 g/ml density by sequential ultracentrifugal flotation in NaBr according to the method of Havel, Eder, et al., 1955, and Chapman, Goldstein, et al., 1981. Once isolated the particles are dialyzed 3× in CETP buffer (50 mM Tris, pH 7.4, 100 mM NaCl, 1 mM EDTA). Human HDL is purchased from Intracel and used as the acceptor particles.
Transfer assays are performed in a 96-well v-bottom polypropylene plate. […] 1 μL of each test compound diluted in DMSO is added to 47 μL of assay cocktail per well and incubated at 37° C. for 1 hour. To initiate the transfer reaction, 2 μL radiolabeled LDL is added. After an additional 60 min of incubation at 37° C., the transfer action is terminated by precipitation of LDL with an equal volume of 20% W/V PEG 8000. The plates are centrifuged at 2000 rpm for 30 minutes at 4° C. A 40 μL aliquot of the HDL-containing supernatant is transferred to a Packard Optiplate™ with 200 μL of MicroScint™ 20. After mixing, plates are counted by liquid scintillation. Counts present in the supernatant for blanks (wells containing only HDL acceptor, CETP buffer and DMSO) are subtracted from those containing test compounds and used to correct for non-specific transfer.
For the transfer assay using endogenous CETP from serum (95% RTA), the same procedure is used except that human serum is added such that a final concentration of serum of 95% of the total assay volume is achieved, yielding a concentration of approximately 15 nM endogenous CETP in the assay. This is then combined with HDL and CETP buffer and the reaction proceeds as above and is terminated as described.
Comparison of the counts of samples with inhibitors to an uninhibited (DMSO only) positive control yield a percent inhibition. A plot of percent inhibition vs. log of inhibitor concentration, fit to a Sigmoidal 4 parameter equation is used to calculate IC50.
Starting materials are commercially available or are made using known procedures or as shown below. The examples may be synthesized using the general schemes provided below. The data reported for the examples below were obtained using the RTA assay in 95% human serum. […] When compounds of Formula I are mentioned herein, such compounds include compounds defined generically by Formula I and also the specific examples disclosed herein.

[2] = cited from earlier work
[3] = Phase III outcomes trial, cited from earlier work
[4] = torcetrapib and atorvastatin concomitantly, compared with atorvastatin alone; cited from earlier work
[5] = patients on anacetrapib with baseline statin therapy, compared with patients treated with just a statin

Question: With `COc1ncc(-c2ccc(C(=O)O)cc2C)cc1-c1ccc(C(F)(F)F)cc1[C@@H]1CC[C@H]2[C@@H](c3cc(F)cc(C(F)(F)F)c3)CC(=O)N12` [Example 19, 4-{5-[2-{(3S,7R,7aS)-7-[3-fluoro-5-(trifluoromethyl)phenyl]-5-oxohexahydro-1H-pyrrolizin-3-yl}-4-(trifluoromethyl)phenyl]-6-methoxypyridin-3-yl}-3-methylbenzoic acid] as the compound, how does the pIC50 [1] read?
Answer: 5.54

Question: With `COc1ccc(-c2ccc(C(=O)O)cc2C)cc1-c1ccc(C(F)(F)F)cc1[C@@H]1CC[C@H]2[C@@H](c3cc(F)cc(C(F)(F)F)c3)CC(=O)N12` [Example 20] as the compound, how does the pIC50 [1] read?
Answer: 5.33

Question: With `COc1ncc(-c2c(C)cc(C(=O)O)cc2C)cc1-c1ccc(C(F)(F)F)cc1[C@@H]1CC[C@H]2[C@@H](c3ccnc(C(F)(F)F)c3)CC(=O)N12` [Example 21, 4-{6-methoxy-5-[2-{(3S,7R,7aS)-5-oxo-7-[2-(trifluoromethyl)pyridin-4-yl]hexahydro-1H-pyrrolizin-3-yl}-4-(trifluoromethyl)phenyl]pyridin-3-yl}-3,5-dimethylbenzoic acid] as the compound, how does the pIC50 [1] read?
Answer: 5.54

Question: Which “decrease of LDL-C” value [2, 5] does the source give for `COc1cc(F)c(C(C)C)cc1-c1ccc(C(F)(F)F)cc1CN1C(=O)O[C@H](c2cc(C(F)(F)F)cc(C(F)(F)F)c2)[C@@H]1C` [anacetrapib] here?
Answer: 40%

Question: And the “increase of HDL-C” value [2, 5]?
Answer: 138%

Question: And the increase in mortality ([2]; patients treated with anacetrapib, DEFINE trial)?
Answer: unlikely

Question: Which “clinical benefit (interim data)” value ([3]; terminated early) does the source give for `CCC(CC)CC1(C(=O)Nc2ccccc2SC(=O)C(C)C)CCCCC1` [dalcetrapib] here?
Answer: did not show a clinical benefit

Question: And the safety issues [3]?
Answer: no safety issues detected

Question: Which incidence of mortality [4] does the source give for `CCOC(=O)N1c2ccc(C(F)(F)F)cc2[C@@H](N(Cc2cc(C(F)(F)F)cc(C(F)(F)F)c2)C(=O)OC)C[C@H]1CC` [torcetrapib] here?
Answer: higher incidence of mortality
